Assay results: article PMC4971421, “Redox-Dependent Modulation of T-Type Ca^2+ Channels in Sensory Neurons Contributes to Acute Anti-Nociceptive Effect of Substance P” (Antioxidants & Redox Signaling, 2016)

Assays:
[1] = tested on: T-type Ca^2+ channels (LVA Ca^2+ current) in DRG neurons; test: LVA (T-type) Ca2+ current, whole-cell patch clamp, cultured small-diameter DRG neurons; type: cell-based, rat; settings: 1 μM; mean ± SEM, n = 7; SEM
Experimental: DRG neurons from adult male Sprague–Dawley rats (170–180 g) were dissociated as previously described ([13], [29]) and cultured in DMEM supplemented with GlutaMax I, 10% fetal calf serum, penicillin (50 U/ml), and streptomycin (50 μg/ml) on glass coverslips that were coated with poly-D-lysine for 2–5 days in a humidified incubator (37°C, 5% CO2). No growth factors were added to the culture media. HEK 293 cells were cultured in the same DMEM media; cells were passaged every 2 days. Human NK1 receptor (GenBank accession No. AY462098) complementary DNA (cDNA) was from the Missouri Science and Technology cDNA Resource Center. WtCaV3.1 (GenBank accession No. AF027984), wtCaV3.2 (GenBank accession No. AF051946), CaV3.1Q172H, and CaV3.2H191Q were kindly provided by Dr E. Perez-Reyes (University of Virginia). HEK293 cells were transfected using Lipofectamine 2000 (Invitrogen) according to the manufacturer's instructions. ST101 was synthesized in house; Z944 was from Toronto Research Chemicals; PTX was from Enzo Life Science; and FluoZin-3AM was from Life Technologies. All other chemicals were from Sigma.
All recordings were made using Multiclamp 700B amplifier in combination with pCLAMP 10.4 software (Molecular Devices). Voltage-clamp recordings from DRG neurons were made using whole-cell patch clamp. The standard bath solution contained the following (in mM): 150 TEA-Cl; 2.5 CsCl; 2.5 CaCl2; 10 HEPES; 0.5 MgCl2; and 10 glucose (pH 7.4 adjusted with CsOH). The standard pipette solution contained the following (in mM): 110 CsCl; 3 MgCl2; 10 EGTA; 10 HEPES; 3 Mg-ATP; and 0.6 GTP (pH 7.4 adjusted with CsOH). The access resistance was typically within 4–8 MΩ. T-type calcium currents (LVA) were measured by 50 ms square voltage pulses to −40 mV from a holding potential of −90 mV. HVA currents were measured by 200 ms square voltage pulses to 0 mV from a holding potential of −90 mV.
where y is the current inhibition; A1 and A2 are the maximum and minimum effects, respectively; x is the S9SP concentration; and nH is the Hill coefficient.

[2] = tested on: small-diameter DRG neurons; test: DRG neuron excitability, perforated patch current clamp; type: cell-based, rat
Experimental: To knock down CaV3.2, DRGs were dissociated as described ([13]); immediately after dissociation, DRG pellets were resuspended in 900 μl DMEM (without GlutaMax I, serum or antibiotics), to which a mixture of 9 μl Lipofectamine RNAiMAX (Invitrogen) and either a mix of three anti-Cacna1h Stealth siRNAs (RSS350285, RSS350286, RSS350287; Life Technologies; 200 nM each) or a scrambled control oligo (Stealth RNAi™ siRNA Negative Control; Life Technologies; 200 nM) were added immediately before resuspension. Cultures were than plated in 50 μl droplets onto glass coverslips that were coated with poly-D-lysine and incubated for 5–6 h; the transfection media were then replaced with full DRG culture medium. Patch-clamp recordings were conducted 24–48 h after the transfection. The following primers were used for reverse transcription polymerase chain reaction (RT-PCR) analysis: • Cacna1h sense: 5′-[…]-3′ • Cacna1h AS: 5′-[…]-3′ • Gapdh sense: 5′-[…]-3′ • Gapdh AS: 5′-[…]-3′
Neuronal excitability was studied using the amphotericin B-perforated patch-clamp current technique ([13]). The extracellular solution contained the following (in mM): 160 NaCl, 2.5 KCl, 5 CaCl2, 1 MgCl2, 10 HEPES, and 8 Glucose. The intracellular solution contained the following (in mM): 145 KCl, 15 NaCl, 5 MgCl2, 10 HEPES, and 250 μg/ml Amphotericin B. The access resistance was typically within […]. APs were generated by an injection of 200 pA current for 1 s from a holding current of 0 pA. Rheobase was determined from a train of current steps from 0 to 400 pA delivered in 20-pA increments. Current clamp recordings were sampled at 12.5 kHz. Bridge balance adjustments were not applied, since only relative changes in Erest, AP number, and rheobase were investigated.

CC(C)(C)NC(=O)CN1CCC(CNC(=O)c2cc(F)cc(Cl)c2)CC1 [Z944, N-[[1-[2-(tert-butylamino)-2-oxoethyl]piperidin-4-yl]methyl]-3-chloro-5-fluorobenzamide]
inhibition of LVA current [1]: 71.4% ± 2.7%
AP amplitude or duration [2]: without significantly affecting
resting membrane potential (Erest) [2]: hyperpolarized
action potential (AP) firing ([2]; 200 pA for 1 s): decreased
effects of BK on the rheobase and the AP number when co-applied with BK ([2]; BK 250 nM): completely reversed
rheobase ([2]; current steps 0–400 pA in 20-pA increments): significantly increased
small DRG neuron excitability ([2]; perforated current clamp): decreased
effect on Erest, AP number, or rheobase in Cacna1h knocked-down neurons ([2]; siRNA against Cacna1h): neither Z994 nor ST101 produced any significant effect
